Values joined by “and” are separate entries in the source; they are usually repeats but may differ in a detail not shown here. Identical values can stand only once.
Structure (SMILES)	melting point
COc1cc(OC)cc(N(CCCN2CC(F)(F)C2)c2ccc3ncc(-c4cnn(C)c4)nc3c2)c1 [Compound 377]	112.31 °C
COCC(O)CN(c1cc(OC)cc(OC)c1)c1ccc2ncc(-c3cnn(C)c3)nc2c1 (stereo not shown) [Compound 397]	132.82 °C
CCOc1cc(F)cc(N(CCO)c2ccc3ncc(-c4cnn(C)c4)nc3c2)c1 [Compound 401]	138 °C
COc1cc(OC)cc(N(CCN2CCC(F)(F)CC2)c2ccc3ncc(-c4cnn(C)c4)nc3c2)c1 [Compound 431]	147.77 °C
[2H]C([2H])([2H])Oc1cc(OC)cc(N(CCNC(C)C)c2ccc3ncc(-c4cn[nH]c4)nc3c2)c1 [Compound 432]	251.77 °C
COc1ccc(OC)c(N(CCN)c2ccc3ncc(-c4cn[nH]c4)nc3c2)c1 [Compound 438]	140.67 °C
COc1cc(OC)cc(N(CCCn2cccn2)c2ccc3ncc(-c4cnn(C)c4)nc3c2)c1 [Compound 448]	80 °C
COc1cc(OC)cc(N(CCN2CCC(N(C)C)C2)c2ccc3ncc(-c4cnn(C)c4)nc3c2)c1 (stereo not shown) [Compound 456]	143.58 °C
COc1cc(OC)cc(N(CCCN2CCC(F)(F)C2)c2ccc3ncc(-c4cnn(CC5CCOCC5)c4)nc3c2)c1 [Compound 459]	99.32 °C
CCOc1cc(F)cc(N(CCN)c2ccc3ncc(-c4cnn(C)c4)nc3c2)c1 [Compound 478]	70 °C
COc1cc(F)cc(N(CCN)c2ccc3ncc(-c4cnn(C)c4)nc3c2)c1 [Compound 488]	96.65 °C
CNCCN(c1cc(F)cc(OC)c1)c1ccc2ncc(-c3cnn(C)c3)nc2c1 [Compound 510]	70 °C
COc1cc(OC)cc(N(CCNCC(F)F)c2ccc3ncc(-c4cnn(C)c4)nc3c2)c1 [Compound 513]	160.65 °C
COc1cc(OC)cc(N(C[C@@H](O)CN2CC[C@H](C#N)C2)c2ccc3ncc(-c4cnn(C)c4)nc3c2)c1 [Compound 526]	234.8 °C
COc1cc(OC)cc(N(CCN2CCN(CCO)CC2)c2ccc3ncc(-c4cnn(C)c4)nc3c2)c1 [Compound 528]	110.16 °C
COc1cc(OC)cc(N(CC(O)CN2CCOCC2)c2ccc3ncc(-c4cnn(C)c4)nc3c2)c1 (stereo not shown) [Compound 540]	130.63 °C
COc1cc(F)cc(N(CCCO)c2ccc3ncc(-c4cnn(C)c4)nc3c2)c1 [Compound 565]	152 °C
COc1cc(OC)cc(N(Cc2cccnc2)c2ccc3ncc(-c4cnn(C)c4)nc3c2)c1 [Compound 568]	164.5 °C
COc1cc(OC)cc(N(Cc2ccncc2)c2ccc3ncc(-c4cnn(C)c4)nc3c2)c1 [Compound 569]	139 °C
COc1cc(OC)cc(N(CCN2CCN(C3CCN(C(C)=O)CC3)CC2)c2ccc3ncc(-c4cnn(C)c4)nc3c2)c1 [Compound 583]	136.49 °C

Structure (SMILES)	melting point
COc1cc(OC)cc(N(CCCN2CCC(F)(F)C2)c2ccc3ncc(-c4cnn(C)c4)nc3c2)c1 [Compound 602]	158.84 °C
CNC(=O)Cn1cc(-c2cnc3ccc(N(CCCNC(C)C)c4cc(OC)cc(OC)c4)cc3n2)cn1 [Compound 615]	134 °C
COc1cc(OC)cc(N(CCC(=O)N(C)OC)c2ccc3ncc(-c4cnn(C)c4)nc3c2)c1 [Compound 633]	130 °C
COc1cc(OC)cc(N(CCCc2cc(C)ccn2)c2ccc3ncc(-c4cnn(C)c4)nc3c2)c1 [Compound 635]	110 °C and 111 °C
COc1cc(OC)cc(N(CCCNCC(N)=O)c2ccc3ncc(-c4cnn(C)c4)nc3c2)c1 [Compound 641]	155 °C
COc1cc(OC)cc(N(CCNC(C)C)c2ccc3ncc(-c4cnn(CCC#N)c4)nc3c2)c1 [Compound 642]	127 °C
COc1cc(OC)cc(N(CC#Cc2ncccc2OC)c2ccc3ncc(-c4cnn(C)c4)nc3c2)c1 [Compound 652, N-(3,5-Dimethoxyphenyl)-N-[3-(3-methoxypyridin-2-yl)prop-2-yn-1-yl]-3-(1-methyl-1H-pyrazol-4-yl)quinoxalin-6-amine]	144 °C and 142 °C
COc1cc(OC)cc(N(CCN(Cc2ccc(N)cc2)C(C)C)c2ccc3ncc(-c4cnn(C)c4)nc3c2)c1 [Compound 658]	152 °C
COc1cc(OC)cc(N(C[C@@H](O)C(F)(F)F)c2ccc3ncc(-c4cnn(CCCN)c4)nc3c2)c1 [Compound 660, 3-[{3-[1-(3-Aminopropyl)-1H-pyrazol-4-yl]quinoxalin-6-yl}(3,5-dimethoxyphenyl)amino]-1,1,1-trifluoropropan-2-ol]	151 °C
COc1cc(OC)cc(N(CCCc2nccc(O)n2)c2ccc3ncc(-c4cnn(C)c4)nc3c2)c1 [Compound 663]	200 °C
COc1cc(OC)cc(N(CCCNCC(F)F)c2ccc3ncc(-c4cnn(C)c4)nc3c2)c1 [Compound 717]	125 °C
COc1cccnc1C#CCN(c1ccc2ncc(-c3cnn(C)c3)nc2c1)c1c(Cl)c(OC)cc(OC)c1Cl [Compound 785]	190 °C
COc1cc(OC)cc(N(c2ccc3ncc(-c4cnn(C)c4)nc3c2)C(C)(C)C#Cc2nccc(OC)n2)c1 [Compound 806]	182 °C
COc1cc(OC)cc(N(Cc2ncccn2)c2ccc3ncc(-c4cnn(C)c4)nc3c2)c1 [Compound 812]	170 °C
COc1cc(OC)cc(N(CC2CCN(c3nccc(OC)n3)CC2)c2ccc3ncc(-c4cnn(C)c4)nc3c2)c1 [Compound 839]	126 °C
Cn1cc(-c2cnc3ccc(N(CC4CC4)c4cccc(OC(F)(F)F)c4)cc3n2)cn1 [Compound 881]	156.5 °C
CN(C)c1cccc(N(CC2CC2)c2ccc3ncc(-c4cnn(C)c4)nc3c2)c1 [Compound 883]	194 °C
COc1cc(OC)cc(N(CC#Cc2cc(OC)nc(OC)n2)c2ccc3ncc(-c4cnn(C)c4)nc3c2)c1 [Compound 913]	170 °C
COc1cc(OC)cc(N(CC#CC2(O)CCN(C(=O)OC(C)(C)C)CC2)c2ccc3ncc(-c4cnn(C)c4)nc3c2)c1 [Compound 914]	166 °C
COc1cc(OC)cc(N(CCC#Cc2ccccc2)c2ccc3ncc(-c4cnn(C)c4)nc3c2)c1 [Compound 919]	130 °C

— patent US9464071B2 (priority 2010, dated 2016)
